Measurements: PMC5218480 (PLoS ONE, 2017)

Tested on: MV-4-11 cells
Assay: Gene expression microarray analysis (Affymetrix PrimeView) and GSEA
Assay type: cell-based, human
Set-up: RFU PODN (11730768_x_at) / Fold change /veh PODN (11730768_x_at) / RFU LINC00158 (11744669_a_at) / Fold change /veh LINC00158 (11744669_a_at) / RFU DUSP10 (11751237_a_at) / Fold change /veh DUSP10 (11751237_a_at) / RFU ID3 (11757404_x_at) / Fold change /veh ID3 (11757404_x_at) / RFU PLEKHG5 (11737974_s_at) / Fold change /veh PLEKHG5 (11737974_s_at) / RFU LRRC4B (11730491_at) / Fold change /veh LRRC4B (11730491_at) / RFU GIMAP4 (11747438_a_at) / Fold change /veh GIMAP4 (11747438_a_at) / RFU KRT8 (11758183_x_at) / Fold change /veh KRT8 (11758183_x_at) / RFU CNN1 (11734310_a_at) / Fold change /veh CNN1 (11734310_a_at) / RFU VPS37D (11726825_at) / Fold change /veh VPS37D (11726825_at) / RFU C10orf10 (11716522_x_at) / Fold change /veh C10orf10 (11716522_x_at) / RFU KIR2DL2 /// KIR2DL4 /// KIR2DL5A /// KIR2DL5B /// KIR2DS1 /// KIR2DS2 /// KIR2DS3 /// KIR2DS4 /// KIR3DL3 /// KIR3DL3 /// KIR3DS1 (11738374_at) / Fold change /veh KIR2DL2 /// KIR2DL4 /// KIR2DL5A /// KIR2DL5B /// KIR2DS1 /// KIR2DS2 /// KIR2DS3 /// KIR2DS4 /// KIR3DL3 /// KIR3DL3 /// KIR3DS1 (11738374_at) / RFU C1QL1 (11718748_at) / Fold change /veh C1QL1 (11718748_at) / RFU TMPRSS4 (11747572_a_at) / Fold change /veh TMPRSS4 (11747572_a_at) / RFU HAMP (11756126_x_at) / Fold change /veh HAMP (11756126_x_at) / RFU RNFT2 (11725882_a_at) / Fold change /veh RNFT2 (11725882_a_at) / RFU NR4A2 (11747474_a_at) / Fold change /veh NR4A2 (11747474_a_at) / RFU ABCC12 (11746883_a_at) / Fold change /veh ABCC12 (11746883_a_at) / RFU TMEM136 (11760407_x_at) / Fold change /veh TMEM136 (11760407_x_at) / RFU CLDN22 /// WWC2 (11732394_at) / Fold change /veh CLDN22 /// WWC2 (11732394_at) / RFU HLA-DPB1 (11760878_x_at) / Fold change /veh HLA-DPB1 (11760878_x_at) / RFU SPINT1 (11716480_a_at) / Fold change /veh SPINT1 (11716480_a_at) / RFU GAP43 (11754022_s_at) / Fold change /veh GAP43 (11754022_s_at) / RFU A4GNT (11735810_at) / Fold change /veh A4GNT (11735810_at) / RFU PRB3 (11715151_x_at) / Fold change /veh PRB3 (11715151_x_at) / RFU TUBB4B (11761932_at) / Fold change /veh TUBB4B (11761932_at) / RFU CAPN14 (11732068_a_at) / Fold change /veh CAPN14 (11732068_a_at) / RFU TMCC2 (11721928_a_at) / Fold change /veh TMCC2 (11721928_a_at) / RFU IRGQ (11745062_a_at) / Fold change /veh IRGQ (11745062_a_at) / RFU FAM174B (11720279_a_at) / Fold change /veh FAM174B (11720279_a_at) / RFU TMPRSS4 (11748680_a_at) / Fold change /veh TMPRSS4 (11748680_a_at) / RFU FAM212B (11763350_a_at) / Fold change /veh FAM212B (11763350_a_at) / RFU PLEKHG5 (11743358_a_at) / Fold change /veh PLEKHG5 (11743358_a_at) / RFU ZSCAN30 (11745921_a_at) / Fold change /veh ZSCAN30 (11745921_a_at) / RFU CMKLR1 (11741424_a_at) / Fold change /veh CMKLR1 (11741424_a_at) / RFU LOC101060620 /// MAPK8IP1 (11723275_at) / Fold change /veh LOC101060620 /// MAPK8IP1 (11723275_at) / RFU SPTSSB (11747773_x_at) / Fold change /veh SPTSSB (11747773_x_at) / RFU PRSS12 (11739890_at) / Fold change /veh PRSS12 (11739890_at) / RFU BIN1 (11741810_x_at) / Fold change /veh BIN1 (11741810_x_at) / RFU WNT11 (11732464_a_at) / Fold change /veh WNT11 (11732464_a_at) / RFU C10orf10 (11716521_a_at) / Fold change /veh C10orf10 (11716521_a_at) / RFU C5orf56 (11738089_at) / Fold change /veh C5orf56 (11738089_at) / RFU CYB561 (11721691_x_at) / Fold change /veh CYB561 (11721691_x_at) / RFU ANKRD19P (11752326_a_at) / Fold change /veh ANKRD19P (11752326_a_at) / RFU OR2T12 /// OR2T33 /// OR2T8 (11738714_s_at) / Fold change /veh OR2T12 /// OR2T33 /// OR2T8 (11738714_s_at) / RFU VCAN (11748164_a_at) / Fold change /veh VCAN (11748164_a_at) / RFU JSRP1 (11732532_at) / Fold change /veh JSRP1 (11732532_at) / RFU KRTAP10-11 (11738290_x_at) / Fold change /veh KRTAP10-11 (11738290_x_at) / RFU MYO3A (11730013_a_at) / Fold change /veh MYO3A (11730013_a_at) / RFU EBF3 (11725865_a_at) / Fold change /veh EBF3 (11725865_a_at) / RFU CAMK2N1 (11719241_x_at) / Fold change /veh CAMK2N1 (11719241_x_at) / RFU C5orf56 (11738088_a_at) / Fold change /veh C5orf56 (11738088_a_at) / RFU OLFML3 (11715873_a_at) / Fold change /veh OLFML3 (11715873_a_at) / RFU LOC100653217 /// NTM (11731650_a_at) / Fold change /veh LOC100653217 /// NTM (11731650_a_at) / RFU MAPK11 (11762145_a_at) / Fold change /veh MAPK11 (11762145_a_at) / RFU FIZ1 (11724087_x_at) / Fold change /veh FIZ1 (11724087_x_at) / RFU OASL (11726364_x_at) / Fold change /veh OASL (11726364_x_at) / RFU SOX15 (11748057_x_at) / Fold change /veh SOX15 (11748057_x_at) / RFU CD79A (11719716_a_at) / Fold change /veh CD79A (11719716_a_at) / RFU HIST1H1D (11736915_at) / Fold change /veh HIST1H1D (11736915_at) / RFU CASKIN2 (11723855_a_at) / Fold change /veh CASKIN2 (11723855_a_at) / RFU LOC730098 (11760151_x_at) / Fold change /veh LOC730098 (11760151_x_at) / RFU OR4N2 (11742367_at) / Fold change /veh OR4N2 (11742367_at) / RFU PRRT2 (11749266_a_at) / Fold change /veh PRRT2 (11749266_a_at) / RFU SNX32 (11753110_a_at) / Fold change /veh SNX32 (11753110_a_at) / RFU CDHR5 (11726645_a_at) / Fold change /veh CDHR5 (11726645_a_at) / RFU RCAN1 (11760418_a_at) / Fold change /veh RCAN1 (11760418_a_at) / RFU FAM167A (11723789_a_at) / Fold change /veh FAM167A (11723789_a_at) / RFU FAM26E (11764081_at) / Fold change /veh FAM26E (11764081_at) / RFU ISYNA1 (11749810_s_at) / Fold change /veh ISYNA1 (11749810_s_at) / RFU ACY1 (11761880_at) / Fold change /veh ACY1 (11761880_at) / RFU 11764098_at / Fold change /veh 11764098_at / RFU SAMD14 (11745864_x_at) / Fold change /veh SAMD14 (11745864_x_at) / RFU NPB (11741838_a_at) / Fold change /veh NPB (11741838_a_at) / RFU TMPRSS6 (11731388_a_at) / Fold change /veh TMPRSS6 (11731388_a_at) / RFU KRTAP10-2 (11738614_at) / Fold change /veh KRTAP10-2 (11738614_at) / RFU ARHGAP8 /// PRR5-ARHGAP8 (11727945_x_at) / Fold change /veh ARHGAP8 /// PRR5-ARHGAP8 (11727945_x_at) / RFU KRTAP5-7 /// NADSYN1 (11734609_at) / Fold change /veh KRTAP5-7 /// NADSYN1 (11734609_at) / RFU RASL12 (11751679_a_at) / Fold change /veh RASL12 (11751679_a_at) / RFU CDKN2B (11736163_a_at) / Fold change /veh CDKN2B (11736163_a_at) / RFU PRF1 (11729649_at) / Fold change /veh PRF1 (11729649_at) / RFU, ZNF638 /// ZNF638-IT1 / Fold change vs veh, ZNF638 /// ZNF638-IT1 / RFU, PANK3 / Fold change vs veh, PANK3 / RFU, SH3YL1 / Fold change vs veh, SH3YL1 / RFU, ZEB2 / Fold change vs veh, ZEB2 / RFU, NRIP1 / Fold change vs veh, NRIP1 / RFU, PTTG1IP / Fold change vs veh, PTTG1IP / RFU, CAPN2 / Fold change vs veh, CAPN2 / RFU, MED14 / Fold change vs veh, MED14 / RFU, SNORA58 / Fold change vs veh, SNORA58 / RFU, C1orf63 / Fold change vs veh, C1orf63 / RFU, LRRFIP1 / Fold change vs veh, LRRFIP1 / RFU, NDUFAF7 / Fold change vs veh, NDUFAF7 / RFU, SLC12A2 / Fold change vs veh, SLC12A2 / RFU, IBTK / Fold change vs veh, IBTK / RFU, ESF1 / Fold change vs veh, ESF1 / Fold change vs veh, TMEM50B / RFU, TAOK1 / Fold change vs veh, TAOK1 / RFU, ACBD3 / Fold change vs veh, ACBD3 / RFU, TMA16 / Fold change vs veh, TMA16 / RFU, RWDD3 / Fold change vs veh, RWDD3 / RFU, BCAT1 / Fold change vs veh, BCAT1 / RFU, EDEM3 / Fold change vs veh, EDEM3 / RFU, TMEM33 / Fold change vs veh, TMEM33 / RFU, WDR75 / Fold change vs veh, WDR75 / RFU, AHCTF1 / Fold change vs veh, AHCTF1 / RFU, TFRC / Fold change vs veh, TFRC / RFU, ZDHHC17 / Fold change vs veh, ZDHHC17 / RFU, NOM1 / Fold change vs veh, NOM1 / RFU, ARL8B / Fold change vs veh, ARL8B / RFU, ZBTB11 / Fold change vs veh, ZBTB11 / RFU, TAMM41 / Fold change vs veh, TAMM41 / RFU, KIAA1704 /// LOC100996395 / Fold change vs veh, KIAA1704 /// LOC100996395 / RFU, ING1 / Fold change vs veh, ING1 / RFU, TRMT61B / Fold change vs veh, TRMT61B / RFU, FUBP3 / Fold change vs veh, FUBP3 / RFU, TP53 / Fold change vs veh, TP53 / RFU, TNKS2 / Fold change vs veh, TNKS2 / RFU, ZFP14 / Fold change vs veh, ZFP14 / RFU, ACTR2 / Fold change vs veh, ACTR2 / RFU, PPP3R1 / Fold change vs veh, PPP3R1 / RFU, PIK3R1 / Fold change vs veh, PIK3R1 / RFU, HNRNPA1 / Fold change vs veh, HNRNPA1 / RFU, RNF170 / Fold change vs veh, RNF170 / RFU, ZNF28 / Fold change vs veh, ZNF28 / RFU, RNGTT / Fold change vs veh, RNGTT / RFU, OGT / Fold change vs veh, OGT / RFU, BRD1 / Fold change vs veh, BRD1 / RFU, MARS / Fold change vs veh, MARS / RFU, ZNF655 / Fold change vs veh, ZNF655 / RFU, FAHD1 / Fold change vs veh, FAHD1 / RFU, BDP1 / Fold change vs veh, BDP1 / RFU, LRRCC1 / Fold change vs veh, LRRCC1 / RFU, ARID1A / Fold change vs veh, ARID1A / RFU, ZNF146 / Fold change vs veh, ZNF146 / RFU, ZNF330 / Fold change vs veh, ZNF330 / RFU, GPN3 / Fold change vs veh, GPN3 / RFU, C9orf123 / Fold change vs veh, C9orf123 / RFU, N4BP2L2 / Fold change vs veh, N4BP2L2 / RFU, ARFIP1 / Fold change vs veh, ARFIP1 / RFU, FAM179B / Fold change vs veh, FAM179B / RFU, BCL10 / Fold change vs veh, BCL10 / RFU, UHRF1BP1L / Fold change vs veh, UHRF1BP1L / RFU, BET1 / Fold change vs veh, BET1 / RFU, CNOT2 / Fold change vs veh, CNOT2 / RFU, ZNF268 / Fold change vs veh, ZNF268 / Fold change vs veh, ZNF507 / RFU, DGCR2 / Fold change vs veh, DGCR2 / RFU, WDSUB1 / Fold change vs veh, WDSUB1 / Fold change vs veh, HSP90B1 /// MIR3652 / RFU, ADSS / Fold change vs veh, ADSS / RFU, GK / Fold change vs veh, GK / RFU, ZNF148 / Fold change vs veh, ZNF148 / RFU, TAF9 / Fold change vs veh, TAF9 / RFU, SLC1A5 / Fold change vs veh, SLC1A5 / RFU, SLMO2 / Fold change vs veh, SLMO2 / RFU, ABCC4 / Fold change vs veh, ABCC4 / RFU, LOC101060439 /// RAP1B / Fold change vs veh, LOC101060439 /// RAP1B / RFU, RFX7 / Fold change vs veh, RFX7 / RFU, GTPBP10 / Fold change vs veh, GTPBP10 / RFU, CNEP1R1 / Fold change vs veh, CNEP1R1 / RFU, BIVM-ERCC5 /// ERCC5 / Fold change vs veh, BIVM-ERCC5 /// ERCC5 / RFU, ILF3 / Fold change vs veh, ILF3 / RFU 11762660_at / Fold change /veh 11762660_at / RFU VCAN (11757783_s_at) / Fold change /veh VCAN (11757783_s_at) / RFU DDX43 (11728927_at) / Fold change /veh DDX43 (11728927_at) / RFU KRT8 (11758188_x_at) / Fold change /veh KRT8 (11758188_x_at) / RFU NKD1 (11759106_at) / Fold change /veh NKD1 (11759106_at) / RFU SRD5A1 (11742802_a_at) / Fold change /veh SRD5A1 (11742802_a_at) / RFU TPSAB1 /// TPSB2 (11721975_s_at) / Fold change /veh TPSAB1 /// TPSB2 (11721975_s_at) / RFU GSTM3 (11746129_a_at) / Fold change /veh GSTM3 (11746129_a_at) / RFU IL23R (11737362_x_at) / Fold change /veh IL23R (11737362_x_at) / RFU TMEM51 (11727254_a_at) / Fold change /veh TMEM51 (11727254_a_at) / RFU PIWIL2 (11732686_x_at) / Fold change /veh PIWIL2 (11732686_x_at) / RFU ORM1 (11744905_x_at) / Fold change /veh ORM1 (11744905_x_at) / RFU CCDC152 (11743942_at) / Fold change /veh CCDC152 (11743942_at) / RFU ECM1 (11717891_a_at) / Fold change /veh ECM1 (11717891_a_at) / RFU IL23R (11748794_a_at) / Fold change /veh IL23R (11748794_a_at) / RFU TNFAIP8L3 (11732012_x_at) / Fold change /veh TNFAIP8L3 (11732012_x_at) / RFU MBOAT4 (11741988_at) / Fold change /veh MBOAT4 (11741988_at) / RFU 11764193_at / Fold change /veh 11764193_at / RFU TMEM53 (11763286_at) / Fold change /veh TMEM53 (11763286_at) / RFU MAGEB2 (11727129_at) / Fold change /veh MAGEB2 (11727129_at) / RFU TMEM200A (11744735_a_at) / Fold change /veh TMEM200A (11744735_a_at) / RFU CCDC152 (11751479_a_at) / Fold change /veh CCDC152 (11751479_a_at) / RFU FAM211A (11726209_a_at) / Fold change /veh FAM211A (11726209_a_at) / RFU RGS16 (11746705_a_at) / Fold change /veh RGS16 (11746705_a_at) / RFU VCAN (11755009_s_at) / Fold change /veh VCAN (11755009_s_at) / RFU RHOB (11743442_s_at) / Fold change /veh RHOB (11743442_s_at) / RFU RGS16 (11720943_a_at) / Fold change /veh RGS16 (11720943_a_at) / RFU RGS16 (11720944_at) / Fold change /veh RGS16 (11720944_at) / RFU, VPS4B / Fold change vs veh, VPS4B / RFU, CREB1 / Fold change vs veh, CREB1 / RFU, DNAJC13 / Fold change vs veh, DNAJC13 / RFU, GNAQ / Fold change vs veh, GNAQ / RFU, CDK5R1 / Fold change vs veh, CDK5R1 / RFU, ZRANB3 / Fold change vs veh, ZRANB3 / RFU, CUL4A / Fold change vs veh, CUL4A / RFU, CCNY / Fold change vs veh, CCNY / RFU, UFL1 / Fold change vs veh, UFL1 / RFU, COG3 / Fold change vs veh, COG3 / RFU, DIAPH2 / Fold change vs veh, DIAPH2 / RFU, SKA2 / Fold change vs veh, SKA2 / RFU, AFF3 / Fold change vs veh, AFF3 / RFU, LMF1 / Fold change vs veh, LMF1 / RFU, IPO11 / Fold change vs veh, IPO11 / RFU, DFFB / Fold change vs veh, DFFB / RFU, FOXP1 / Fold change vs veh, FOXP1 / RFU, CARD8 / Fold change vs veh, CARD8 / RFU, STRN3 / Fold change vs veh, STRN3 / RFU, ADK / Fold change vs veh, ADK / RFU, RASSF2 / Fold change vs veh, RASSF2 / RFU, WIPF1 / Fold change vs veh, WIPF1 / RFU, LARP1B / Fold change vs veh, LARP1B / RFU, RASA1 / Fold change vs veh, RASA1 / RFU, RB1 / Fold change vs veh, RB1 / RFU, PPFIA1 / Fold change vs veh, PPFIA1 / RFU, MAT2A / Fold change vs veh, MAT2A / RFU, CCT5 / Fold change vs veh, CCT5 / RFU, WDR92 / Fold change vs veh, WDR92 / RFU, CUX1 / Fold change vs veh, CUX1 / RFU, TTC7A / Fold change vs veh, TTC7A / RFU, TMEM135 / Fold change vs veh, TMEM135 / RFU, DEPTOR / Fold change vs veh, DEPTOR / RFU, CPM / Fold change vs veh, CPM / RFU, DNAJB6 / Fold change vs veh, DNAJB6 / RFU, CACNA2D3 / Fold change vs veh, CACNA2D3 / RFU, DTX4 / Fold change vs veh, DTX4 / RFU, TFCP2 / Fold change vs veh, TFCP2 / RFU, GMCL1 /// GMCL1P1 / Fold change vs veh, GMCL1 /// GMCL1P1 / RFU, AEBP2 / Fold change vs veh, AEBP2 / RFU, SNHG1 /// SNORD22 /// SNORD25 /// SNORD26 /// SNORD27 /// SNORD28 /// SNORD29 /// SNORD31 / Fold change vs veh, SNHG1 /// SNORD22 /// SNORD25 /// SNORD26 /// SNORD27 /// SNORD28 /// SNORD29 /// SNORD31 / Fold change (Aza/veh), C12orf56 (ProbeSet 11735607_a_at) / Fold change (ACY-1035/veh), C12orf56 (ProbeSet 11735607_a_at) / Fold change (Aza/veh), FGFR1OP (ProbeSet 11751329_s_at) / Fold change (ACY-1035/veh), FGFR1OP (ProbeSet 11751329_s_at) / Fold change (Aza/veh), VPS36 (ProbeSet 11739960_a_at) / Fold change (ACY-1035/veh), VPS36 (ProbeSet 11739960_a_at) / RFU SYPL1 (11715823_x_at) / Fold change /veh SYPL1 (11715823_x_at) / RFU IGFBP7 (11715501_s_at) / Fold change /veh IGFBP7 (11715501_s_at) / RFU REEP3 (11722064_at) / Fold change /veh REEP3 (11722064_at) / RFU IGLL1 (11728026_x_at) / Fold change /veh IGLL1 (11728026_x_at): dose or concentration left out as unconfirmed
Conditions: ProbeSet 11722302_a_at; LIST B

Question: For `Nc1ccc(-c2cccs2)cc1NC(=O)c1ccc2c(c1)cc(C1CC1)n2CCN1CCOCC1` [ACY-1035], which “Fold change vs veh, LRRFIP1” value is on record?
Answer: The value was 0.98.
